Source: US7893299B2, “Interleukin-1 and tumor necrosis factor-αmodulators; syntheses of such modulators and methods of using such modulators” (Nereus Pharmaceuticals, Inc., priority 2005, dated 2011)
Like-named read-outs stand apart in the source and are kept apart here.

Key:
[1] = tested on: IκBα phosphorylation; assay: phosphorylation level of IκBα induced by LPS in RPMI 8226 cells; assay type: cell-based; conditions: formula (IIB-A1) 13 μM, TTL3 10 μM, 50 ng/ml LPS
Experimental: One ml/well of 2×10^6/ml RPMI 8226 cells (#CCL-155C, American Type Culture Collection) were seeded in 6-well plate in LGM-3 medium and cultured for overnight at 37° C., 5% CO2 and 95% humidified air. TTL3 and formula (IIB-A1) were added to RPMI 8226 cells at the final concentration of 10 μM and 13 μM for 1 hr, respectively. DMSO was used as a control. Cells were then stimulated with 50 ng/ml LPS diluted in LGM-3 medium from 1 mg/ml stock solution for 30 min, 1 hr, 2 hr and 4 hr. At the end of each time point, cells were harvested by centrifugation and cell pellets were washed once in ice-cold 1× DPBS. To prepare samples for SDS-PAGE, cells were lysed in RIPA buffer (50 mM Tris-HCl, pH7.4, 0.9% NaCl, 1% Triton X-100, 0.25% Na-deoxycholate, 1 mM EDTA, 2 mM Na3VO4 and 1× protease inhibitors cocktail) for 15 min on ice. Cell lysates were cleared by centrifugation at 14,000 rpm, 4° C. for 10 min. Protein concentrations of cell lysates were determined by BCA protein assay kit prior to SDS-PAGE. Equal amount of proteins from various cell lysates were resolved on 10% NuPage MES precast gels and transferred to nitrocellulose membranes according to the manufacturer's instructions. After transfer membranes were first blocked in BLOTTO (5% Non-fat dry milk in 1× DPBS buffer containing 0.1% Tween-20) at room temperature for 2 hr and then incubated with appropriate primary antibodies: anti-phospho-IκBα (1:1000) or anti-Tubulin (1:2000) for 2 hr. Antibody against tubulin was used as a control to confirm the equal loading of each sample. After the primary antibody incubation, membranes were washed briefly 2-3 times for 10 min each with BLOTTO and again incubated with sheep anti-mouse HRP conjugated secondary antibody for 1 hr. Following the secondary antibody incubation, membranes were washed extensively 4 times for 15 min each with PBST (1× DPBS plus 0.1% Tween-20). HRP activity was visualized by the enhanced chemiluminescence (ECL) detection system.

[2] = tested on: THP-1 cells; assay: resazurin viability assay in THP-1 cells; assay type: cell-based, human; conditions: * mild, ** marked reduction in viability, in % (unit assumed)
Experimental: The ability to inhibit TNF-α production was analyzed in THP-1 cells, a human acute monocytic leukemia cell line that is widely used to assess monocyte functions. In order to induce maturation, THP-1 cells were plated at 1×10^6 cells/ml and pretreated with 5 nM PMA for two days. Differentiated THP-1 cells were pretreated with various concentrations of TTL3 or its analogs for 1 hour, followed by a 4 hour incubation with 1 μg of LPS (Sigma, St. Louse, Mo.). The p38 inhibitor (SB 203580; Sigma, St. Louis, Mo.) was used as a positive control. Supernatants were collected and stored at −80° C. until assayed for TNF-α activity. A resazurin assay was performed for each analog to evaluate the effects on cell metabolism and viability.
A preparation of the dye resazurin, commercially-available as alamarBlue™ (Biosource International Inc., 820 Flynn Road, Camarillo, Calif.), was used for the cytotoxicity assays described herein. The assays and experiments described herein were conducted in substantially the same manner as described in the scientific literature, for example, in Magnani, E. and Bettini, E., “Resazurin detection of energy metabolism changes in serum-starved PC12 cells and of neuroprotective agent effect,” Brain Res Protoc., 2000 July; 5(3):266-72 and in Nociari M. M., Shalev A., Benias P., and Russo C. J, “A novel one-step, highly sensitive fluorometric assay to evaluate cell-mediated cytotoxicity,” Immunol. Methods 213, 157-167 (1998), see also U.S. Pat. No. 5,501,959, entitled “Antibiotic and Cytotoxic Drug Susceptibility Assays using Resazurin and Poising Agents,” the entire specification of which is incorporated herein by reference.

[3] = tested on: HPBMC; assay: HPBMC cell viability, Resazurin; assay type: cell-based, Human; conditions: for EC50: HPBMC, 24 hr drug exposure, read-out: EC50 Inhibition of cell growth
Experimental: Eighty μl of 3.1×10^5/ml Human Peripheral Blood Mononuclear cells (HPBMC) were seeded in Costar 3904 96-well plate in LGM-3 medium and cultured for 12 hr at 37° C., 5% CO2 and 95% humidified air. 10 μl of 8-point half-log serial dilutions of LT-1-85, CC-3-19, CC-3-13P, formula (IIB-A1) and CC-3-22 prepared in LGM-3 medium was added to the cells and incubated for 1 hr. Subsequently, 10 μl of 500 ng/ml lipopolysaccharide (LPS) diluted in LGM-3 medium from 1 mg/ml stock solution was added to the cells and incubation proceeded for another 4 hr at 37° C., 5% CO2 and 95% humidified air. SB203580, a known p38 MAP kinase inhibitor and DMSO were used as positive and negative controls, respectively. After 4 hr stimulation with LPS, the level of TNF-α from each sample was analyzed by using the human TNF-α cytoset ELISA kit. EC50 values (the drug concentration at which 50% of the maximal observed TNF-α production is inhibited) were determined using a standard sigmoidal dose response curve fitting algorithm (Prism 2.0, GraphPad Software Inc). A duplicate set of cell plates were assayed for cell viability using the Resazurin dye after the cells were incubated with test compounds for 24 hr. The fluorescence of the reduction product of Resazurin was measured using a Fusion microplate fluorometer (Packard Bioscience) with λex=535 nm and λem=590 nm filters. EC50 values (the drug concentration at which 50% of the maximal observed growth inhibition is established) were determined using a standard sigmoidal dose response curve fitting algorithm (Prism 2.0, GraphPad Software Inc).

Compound | level of IκBα phosphorylation induced by LPS in RPMI 8226 cells [1] | Effect on Cell Viability ([2]; 100 ng/ml) | Effect on Cell Viability ([2]; 1 ug/ml) | Effect on Cell Viability ([2]; 10 ug/ml) | EC50 [3] [µM] | EC50 ([3]; Homo sapiens, 24 h) [µM] | level of IκBα phosphorylation induced by LPS in RPMI 8226 cells ([1]; listed as formula (IIB-A1)) | cell growth of HPBMC (in words) ([3]; concentrations up to 26 μM)
C=C[C@@]1(C)CCC=C2[C@H]1CC[C@@H]1[C@](C)(C(=O)OC)CCC[C@@]21C [TTL3] | minimal | 100 | 100 | 100 | – | – | – | –
C=C[C@@]1(C)CCC=C2[C@H]1CC[C@@H]1[C@](C)(C(=O)N3CCOCC3)CCC[C@@]21C [LT-1-85] | – | 100 | 100 | 80* | 3.6 | 3.8 | – | –
C=C[C@@]1(C)CCC=C2[C@H]1CC[C@@H]1[C@](C)(C(=O)NC3CCCCC3)CCC[C@@]21C [Formula (IIB-A1), N-Cyclohexylamide Derivative of TTL] | decrease | – | – | – | – | > 26 | greatly reduced | did not inhibit
